Laboratory results reported in patent publication US6362163B1, “Parathyroid hormone-related peptide analogs” (The General Hospital Corporation, priority 1996, dated 2002).
Where no end group is shown, it is not given here.

Experiments:
[1] = molecular target: T1, PTH/PTHrP receptor (Homo sapiens, UniProt Q03431); assay: Competition radioligand binding, COS-7 cells transfected with human PTH/PTHrP receptor; conditions: for Binding in words, PTH/PTHrP receptor: competition with radioligand
T1 construct: expressed in transfected cells; host or cells: COS-7 cells, transient transfection, vector pcDNA-1
T1 sequence (Q03431 27-593): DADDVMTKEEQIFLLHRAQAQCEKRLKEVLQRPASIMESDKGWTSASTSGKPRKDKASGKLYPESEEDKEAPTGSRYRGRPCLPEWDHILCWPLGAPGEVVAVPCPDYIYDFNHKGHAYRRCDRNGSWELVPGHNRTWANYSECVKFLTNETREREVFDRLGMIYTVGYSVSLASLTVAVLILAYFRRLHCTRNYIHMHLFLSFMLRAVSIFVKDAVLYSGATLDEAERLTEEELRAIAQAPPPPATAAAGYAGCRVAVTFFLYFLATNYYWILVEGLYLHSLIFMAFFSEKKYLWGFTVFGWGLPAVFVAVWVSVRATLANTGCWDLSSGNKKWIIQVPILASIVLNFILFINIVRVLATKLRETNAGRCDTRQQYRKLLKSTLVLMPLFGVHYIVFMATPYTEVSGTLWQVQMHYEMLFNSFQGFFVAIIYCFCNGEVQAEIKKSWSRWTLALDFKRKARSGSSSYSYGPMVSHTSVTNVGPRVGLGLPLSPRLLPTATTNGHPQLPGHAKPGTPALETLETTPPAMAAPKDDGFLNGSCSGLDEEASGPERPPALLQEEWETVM
Protocol: (§1) The cDNAs encoding the human PTH/PTHrP receptor (Schipani, E. et al., Endocrinology 132:2157-2165 (1993)) and the human PTH-2 receptor (Usdin, T. et al., J. Biol. Chem. 270:15455-15458 (1995)) were carried on the expression vectors pcDNA-1 and pcDNAI/Amp (InVitrogen, San Diego, Calif.), respectively. COS-7 cells were cultured and transfected as described previously (Lee, C. et al., Mol. Endocrinol. 9:1269-1278 (1995)). Cells were transfected in 24-well plates using plasmid DNA (200 ng/well) purified by cesium chloride/ethidium bromide gradient centrifugation. Ligand binding and cAMP accumulation assays were performed three days after transfection, by which time the cell density reached 500,000±100,000 cells/well.
(§2) Binding reactions were performed as described previously. Id. Each well (final volume: […]) contained 26 fmole of ^125I-[Nle^8,21,Tyr^34]rPTH(1-34)NH2 (100,000 CPM) and various amounts (0.4-300 pmole) of an unlabeled competitor ligand, both diluted in binding buffer (50 mM Tris-HCl, pH 7.7, 100 mM NaCl, 5 mM KCl, 2 mM CaCl, 5% heat-inactivated horse serum, 0.5% heat-inactivated fetal bovine serum). Incubations were at room temperature for 2 hours, except for experiments involving Scatchard analysis, which were performed at 4° C. for 6 hours. At the end of the binding reaction, the cells were rinsed 3 times with 0.5 ml of binding buffer, lysed with 0.5 ml of 5M NaOH, and the entire lysate was counted. Nonspecific binding of tracer (NSB), determined in wells containing 1 μM of [NleTyr^8,21,Tyr^34]rPTH-(1-34)NH2, was ˜1% of total counts added. Maximum specific binding (B0) was calculated as the total radioactivity bound to cells in the absence of unlabeled PTH ligand, minus NSB. […] For Scatchard analyses, homologous competition binding studies were performed that used ^125I-[-NleTyr^8,21,Tyr^34]rPTH-(1-34)NH2 (26 fmole/well) and varying amounts (1.2-300 pmol) of the same unlabeled ligand. Estimates of the number of receptors/cell derived from these studies assumed a single class of binding sites and a transfection efficiency of 20% (Abou-Samra, A. B. et al., Proc. Natl. Acad. Sci (USA) 89:2732-2736 (1992)).

[2] = molecular target: T2, PTH-2 receptor (Homo sapiens, UniProt P49190); assay: Competition radioligand binding, COS-7 cells transfected with human PTH-2 receptor; conditions: for Binding in words, PTH-2 receptor: competition with radioligand
T2 construct: expressed in transfected cells; host or cells: COS-7 cells, transient transfection, vector pcDNAI/Amp
T2 sequence (P49190 25-550): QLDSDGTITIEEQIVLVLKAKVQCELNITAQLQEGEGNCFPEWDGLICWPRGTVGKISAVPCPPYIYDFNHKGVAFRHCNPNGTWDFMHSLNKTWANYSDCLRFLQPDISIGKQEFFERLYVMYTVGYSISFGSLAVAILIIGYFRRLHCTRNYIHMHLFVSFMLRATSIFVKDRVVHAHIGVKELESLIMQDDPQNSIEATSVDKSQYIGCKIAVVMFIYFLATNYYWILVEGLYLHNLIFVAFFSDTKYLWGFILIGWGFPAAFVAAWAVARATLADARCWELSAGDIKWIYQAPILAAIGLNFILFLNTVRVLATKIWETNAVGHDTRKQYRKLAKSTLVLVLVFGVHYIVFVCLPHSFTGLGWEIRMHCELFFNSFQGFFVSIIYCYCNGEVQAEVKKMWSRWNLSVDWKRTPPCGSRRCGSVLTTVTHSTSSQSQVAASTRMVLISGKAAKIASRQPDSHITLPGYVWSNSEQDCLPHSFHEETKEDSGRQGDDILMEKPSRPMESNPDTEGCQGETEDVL
Protocol: as §1, §2

[3] = molecular target: T1, PTH/PTHrP receptor; assay: Ligand-induced intracellular cAMP accumulation, COS-7 cells expressing human PTH/PTHrP receptor; type: cell-based; conditions: for cAMP accumulation Maximum, PTH/PTHrP receptor: highest level of cAMP attained, basal 4.6 ± 0.2 not subtracted, 1h at room temperature; for cAMP agonist activity in words, PTH/PTHrP receptor: COS-7 cells
Protocol: as §1
(§3) Transfected COS-7 cells were rinsed with […] of binding buffer. 200 μl of IBMX buffer (DMEM containing 2 mM IBMX, 1 mg/ml bovine serum albumin, 35 mM Hepes-NaOH, pH 7.4) and […] of binding buffer or binding buffer containing various amounts of a PTH or PTHrP analog were then added. The plates were incubated for 60 minutes at room temperature. The buffer was then withdrawn and the cells lysed by placing the plates on powdered dry ice and adding 0.5 ml of 50 mM HCl. The acid lysate was diluted 1/30 in dH2O, and an aliquot (5-50 μl) analyzed for cAMP content by radioimmunoassay. […] The cells were then incubated for 30 minutes at room temperature, and the resulting intracellular cAMP was measured by RIA. Data were analyzed using the AssayZap software (Elsevier Science Publishers BV, Cambridge, United Kingdom).

[4] = molecular target: T2, PTH-2 receptor; assay: Ligand-induced intracellular cAMP accumulation, COS-7 cells expressing human PTH-2 receptor; type: cell-based; conditions: for cAMP agonist activity in words, PTH-2 receptor: COS-7 cells; for cAMP accumulation Maximum, PTH-2 receptor: highest level of cAMP attained, basal 5.4 ± 0.3 not subtracted, 1h at room temperature
Protocol: as §1, §3

[5] = molecular target: T1, PTH/PTHrP receptor; assay: Antagonism of PTH-(1-34)-induced cAMP formation, COS-7 cells expressing PTH/PTHrP receptor; type: cell-based; conditions: IBMX, 30 minutes at room temperature
Protocol: (§4) FIGS. 7A and 7B depicts the antagonism of PTH-(1-34)-induced cAMP formation in COS-7 cells expressing PTH/PTHrP or PTH-2 receptors. […] The corresponding basal cAMP levels in cells not treated with peptide were […] pmoles/well, respectively. Data are the mean (±s.e.m.) of two experiments, each performed in duplicate.
as §3

[6] = molecular target: T2, PTH-2 receptor; assay: Antagonism of PTH-(1-34)-induced cAMP formation, COS-7 cells expressing PTH-2 receptor; type: cell-based; conditions: IBMX, 30 minutes at room temperature
Protocol: as §4, §3

[7] = COS-7 cells, radioligand 125I-[Nle8,21,Y34]rPTH-(1-34)NH2, 2 hours at room temperature, mean ± s.e.m.
[8] = agonist [Tyr34]hPTH-(1-34)NH2 1 nM

Row | Binding affinity, fold weaker than PTH-(1-34) ([1]; PTH/PTHrP receptor) | cAMP accumulation Maximum, PTH/PTHrP receptor [3] [pmoles/well] | cAMP agonist activity in words, PTH-2 receptor [4] | cAMP accumulation Maximum, PTH-2 receptor [4] [pmoles/well] | cAMP agonist activity in words, PTH/PTHrP receptor [3] | Binding in words, PTH-2 receptor ([2]; COS-7 cells) | Substance | Binding in words, PTH/PTHrP receptor ([1]; COS-7 cells) | also measured
1 | – | – | – | – | – | – | LNSMERVEFLRKKLQDVHNY-NH2 [[F23, Y34]hPTH-(15-34)NH2] | – | IC50 [1, 7]: > 10 µM; IC50 [2, 7]: > 10 µM
2 | 2-3 fold | 104 ± 16 | nearly a full agonist | 50 ± 8 | – | – | [F23, Y34]hPTH-(1-34)NH2 | – | Reduction in binding potency compared to unsubstituted PTH-(1-34) ([2]; PTH-2 receptor): 28 fold
3 | – | 116 ± 19 | – | 10 ± 1 | efficiently stimulated cAMP formation | – | [H5, Y34]hPTH-(1-34)NH2 | competed very poorly | –
4 | – | 123 ± 14 | inactive | 12 ± 1 | potent agonist | – | [Trp^23,Tyr^36]hPTHrP-(1-36) [[W23, Y36]hPTHrP-(1-36)NH2] | – | Binding affinity, fold stronger than PTHrP-(1-36) ([1]; PTH/PTHrP receptor): 6 fold; Effect on PTH-(1-34)-induced cAMP response in words, PTH/PTHrP receptor [5, 8]: not an antagonist, but instead augmented the agonist response to PTH-(1-34); Enhancement of binding potency compared to PTHrP-(1-36) ([2]; PTH-2 receptor): 71 fold; Inhibition of PTH-(1-34)-induced cAMP activity in words, PTH-2 receptor [6, 8]: at least as potent as [Leu^11,D-Trp^12]hPTHrP(7-34)NH2
5 | – | 113 ± 13 | potent agonist | 81 ± 5 | full and potent agonists | bound with high apparent affinity | [Tyr^34]hPTH-(1-34)NH2 [[Y34]hPTH-(1-34)NH2, reference compound] | fully inhibited binding of the radioligand | Binding potency, fold more potent than PTHrP-(1-36) ([1]; PTH/PTHrP receptor, inhibition of radioligand binding): 4.8 fold; cAMP level in cells treated with agonist alone, PTH/PTHrP receptor ([5]; 1 nM): 167±17 pmoles/well; cAMP level in cells treated with agonist alone, PTH-2 receptor ([6]; 1 nM): 70±8 pmoles/well
6 | six-fold weaker binding | – | nearly inactive | 11 ± 1 | full and potent agonists | bound poorly | [Tyr^36]hPTHrP-(1-36)NH2 [[Y36]hPTHrP-(1-36)NH2, reference compound] | fully inhibited binding of the radioligand | Binding potency, fold weaker than PTH-(1-34) ([2]; PTH-2 receptor): more than 100 fold
